Test system: p62-RL-HEK cells
Assay: Cell-based p62-Renilla luciferase reporter assay of autophagy activity
Set-up: species or system Human
Conditions: positive controls: 3-MA 5 μM, rapamycin 200 nM; 24 hr at 37° C.
Experimental: FIG. 3. Treatments with BVEE induces autophagy. A. GFP-LC3-HEK cells were treated with BVEE (50 μg/ml) at 37° C. for 24 h. An autophagy inducer, rapamycin, and an autophagy inhibitor, 3-MA, were included as controls. Clarified lysates containing equal amounts of proteins were resolved by SDS-PAGE and analyzed by Western blotting with anti-p62 (top panel), anti-LC3 (middle panel), and anti-GAPDH (bottom panel) antibodies. B. A stable cell line p62-RL-HEK that overexpresses Renilla luciferase-tagged p62 was treated with BVEE (50 μg/ml) at 37° C. for 24 h. Additional treatments with either rapamycin or 3-MA were included as controls. Renilla luciferase signal was determined by the addition of coelenterazine at equal volume to a final concentration of 5 μM. Luminescence emitted by DMSO-treated cells (Control) was referred to as 100% relative Renilla luciferase signal;
FIG. 12. The autophagy-inducing potency of extracts derived from B. variegate (BV) by using different solvents. The p62-RL-HEK cells were treated with or without B. variegate extract ([…]) at 37° C. for 24 h. Additional treatments with either rapamycin (RAP) or 3-MA were included as references. Renilla luciferase (Luc) activity was determined by the addition of coelenterazine to a final concentration of […]. Luminescence emitted by DMSO-treated cells (Control) was referred to as 100% relative Renilla luciferase signal. […]

With `Cn1cnc(N)c2ncnc1-2` [3-MA, 3-methyladenine] the “luciferase signal of p62-RL-HEK cells” value was “significant increase”.

Source: patent publication US11311592B2, “Bauhinia extract and uses thereof” (Academia Sinica, priority 2015, dated 2022)
